# Read-outs that look alike come from different tables or passages of the source.
# Columns and labels:
# M. avium = assay: MIC by resazurin (REMA) assay against Mycobacterium, test strain 21; assay type: cell-based
# Protocol: (§1) In order to test the antibacterial activity, the medium of Mycobacterium cultured to late log phase was diluted so as to be 4.0×10^5 cells/well in Middlebrook 7H10 agar medium (Difco) supplemented with 10% oleic acid, albumin, dextrose, catalase (OADC, Becton Dickinson) and 0.05% Tween 80 (Sigma Aldrich) and was dispensed into a 96-well plate. The compounds were treated so that DMSO was 1%, and after 3 days, a 0.025% resazurin (REMA) solution was dispensed, and the growth of the bacteria was confirmed after culturing. The MIC value was measured for the antibacterial activity through resazurin (excitation 530 nm, emission 590 nm).
# M. intracelluare = assay: MIC by resazurin (REMA) assay against Mycobacterium, test strain 22; assay type: cell-based; conditions: Mycobacterium intracellulare
# Protocol: as §1
# M. abscessus = assay: MIC by resazurin (REMA) assay against Mycobacterium, test strain 23; assay type: cell-based; conditions: Mycobacteroides abscessus
# Protocol: as §1
# C. difficile 174 = assay: MIC by agar dilution against Clostridioides difficile, test strain 18; assay type: cell-based
# C. difficile 152 = assay: MIC by agar dilution against Clostridioides difficile, test strain 14; assay type: cell-based
# S. epidermis^MR = assay: MIC by broth microdilution (aerobic pathogens), test strain 6; assay type: cell-based, Methicillin resistant Staphylococcus epidermidis; conditions: Staphylococcus epidermidis
# Method in brief: (§2)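 Read-out is the concentration achieving 90% growth inhibition relative to non-treated control, determined by broth microdilution under CLSI M7-A5 conditions.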
# C. difficile 181 = assay: MIC by agar dilution against Clostridioides difficile, test strain 19; assay type: cell-based
# S. aureus^MR = assay: MIC by broth microdilution (aerobic pathogens), test strain 3; assay type: cell-based, Methicillin resistant Staphylococcus aureus; conditions: Staphylococcus aureus; test strain 3, S. aureus^MR (methicillin resistant); read-out: MIC
# Protocol: (§3) The antibacterial activity of the compounds of Examples 1 to 48 of the present invention against aerobic pathogens were evaluated by measuring the minimum concentration of the antibiotic capable of inhibiting bacterial growth by 90% compared to the growth of the non-drug treated control group. MIC was measured by the broth microdilution method based on CLSI standards [Reference: Clinical and Laboratory Standards Institute Document. (2000) Methods for Dilution Antimicrobial Susceptibility Test for Bacteria that Grow Aerobically-Fifth Edition: M7-A5. CLSI, Villanova, PA].
# (§4) All 13 strains such as methicillin susceptible Staphylococcus aureus (MSSA), methicillin resistant Staphylococcus aureus (MRSA), Vancomycin resistant Staphylococcus aureus (VRSA), Staphylococcus epidermidis, methicillin resistant Staphylococcus epidermidis, Enterococcus faecalis, Vancomycin resistant Enterococcus faecalis, Enterococcus faecium, Vancomycin resistant Enterococcus faecium were used.
# E. faecium^VRE = assay: MIC by broth microdilution (aerobic pathogens), test strain 11; assay type: cell-based, Vancomycin resistant Enterococcus faecium; conditions: Enterococcus faecium
# Protocol: as §3, §4
# C. difficile 173 = assay: MIC by agar dilution against Clostridioides difficile, test strain 17; assay type: cell-based
# C. difficile 9689 = assay: MIC by agar dilution against Clostridioides difficile, test strain 13; assay type: cell-based
# E. faecalis = assay: MIC by broth microdilution (aerobic pathogens), test strain 7; assay type: cell-based; conditions: Enterococcus faecalis
# Method in brief: as §2
# C. difficile 159 = assay: MIC by agar dilution against Clostridioides difficile, test strain 15; assay type: cell-based; conditions: test strain 15, C. difficile 159, anaerobic, agar dilution, read-out: MIC
# S. aureus^VR = assay: MIC by broth microdilution (aerobic pathogens), test strain 4; assay type: cell-based, Vancomycin resistant Staphylococcus aureus; conditions: Staphylococcus aureus; test strain 4, S. aureus^VR (vancomycin resistant); read-out: MIC
# Protocol: as §3, §4
# C. difficile 161 = assay: MIC by agar dilution against Clostridioides difficile, test strain 16; assay type: cell-based
# S. aureus^MS [1] = assay: MIC by broth microdilution (aerobic pathogens), test strain 1; assay type: cell-based; conditions: Staphylococcus aureus
# Method in brief: as §2
# S. epidermis = assay: MIC by broth microdilution (aerobic pathogens), test strain 5; assay type: cell-based; conditions: Staphylococcus epidermidis
# Method in brief: as §2
# E. faecium = assay: MIC by broth microdilution (aerobic pathogens), test strain 10; assay type: cell-based; conditions: Enterococcus faecium
# Method in brief: as §2
# S. aureus^MS [2] = assay: MIC by broth microdilution (aerobic pathogens), test strain 2; assay type: cell-based; conditions: Staphylococcus aureus
# Method in brief: as §2
# E. faecalis^VanA = assay: MIC by broth microdilution (aerobic pathogens), test strain 8; assay type: cell-based, Vancomycin resistant Enterococcus faecalis; conditions: Enterococcus faecalis; test strain 8, E. faecalis^VanA (vancomycin resistant); read-out: MIC
# Method in brief: as §2
# E. faecalis^LinR = assay: MIC by broth microdilution (aerobic pathogens), test strain 9; assay type: cell-based, Linezolid resistant Enterococcus faecalis; conditions: Enterococcus faecalis
# Method in brief: as §2
# E. faecium^LinR = assay: MIC by broth microdilution (aerobic pathogens), test strain 12; assay type: cell-based, Linezolid resistant Enterococcus faecium; conditions: Enterococcus faecium; test strain 12, E. faecium^LinR (linezolid resistant); read-out: MIC
# Method in brief: as §2
# [3] = test strain 21, M. avium, resazurin, read-out: MIC
# [4] = test strain 22, M. intracelluare, resazurin, read-out: MIC
# [5] = test strain 23, M. abscessus, resazurin, read-out: MIC
# [6] = test strain 18, C. difficile 174, anaerobic, agar dilution, read-out: MIC
# [7] = test strain 14, C. difficile 152, anaerobic, agar dilution, read-out: MIC
# [8] = test strain 6, S. epidermis^MR (methicillin resistant), read-out: MIC
# [9] = test strain 19, C. difficile 181, anaerobic, agar dilution, read-out: MIC
# [10] = test strain 17, C. difficile 173, anaerobic, agar dilution, read-out: MIC
# [11] = test strain 13, C. difficile 9689, anaerobic, agar dilution, read-out: MIC
# [12] = test strain 7, E. faecalis, read-out: MIC
# [13] = test strain 16, C. difficile 161, anaerobic, agar dilution, read-out: MIC
# [14] = test strain 1, S. aureus^MS, read-out: MIC
# [15] = test strain 10, E. faecium, read-out: MIC
# [16] = test strain 2, S. aureus^MS, read-out: MIC
# [17] = test strain 9, E. faecalis^LinR (linezolid resistant), read-out: MIC
# [18] = test strain 5, S. epidermis, read-out: MIC
SMILES,MIC (M. avium; [3]) [µg/mL],MIC (M. intracelluare; [4]) [µg/mL],MIC (M. abscessus; [5]) [µg/mL],MIC (S. epidermis^MR; [8]) [µg/mL],MIC (E. faecalis; [12]) [µg/mL],MIC (S. aureus^MS [1]; [14]) [µg/mL],MIC (S. epidermis) [µg/mL],MIC (S. aureus^MS [2]; [16]) [µg/mL],MIC (E. faecalis^LinR; [17]) [µg/mL],MIC (S. epidermis; [18]) [µg/mL],further results
"CC[C@H]1OC(=O)[C@H](C)[C@@H](O[C@H]2C[C@@](C)(OC)[C@@H](O)[C@H](C)O2)[C@H](C)[C@@H](O[C@@H]2O[C@H](C)C[C@H](N(C)C)[C@H]2O)[C@](C)(OC)C[C@@H](C)C(=O)[C@H](C)[C@@H](O)[C@]1(C)O [Cla, Clarithromycin, reference compound]",0.205,0.143,1.28,,,,,,,,
C/C=C1\NC(=O)[C@H]([C@@H](C)O)NC(=O)c2csc(n2)-c2ccc(-c3nc(-c4nc(C(=O)NC5(C(=O)NCCCN6C(=O)CNC6=O)CC5)cs4)cs3)nc2-c2csc(n2)[C@H]([C@@H](C)O)NC(=O)c2csc(n2)[C@H](C(C)C)NC(=O)c2csc1n2 [Compound 9],,,0.37,0.25,0.25,0.25,0.125,0.25,0.5,,"MIC (C. difficile 174; [6]): 0.06 µg/mL; MIC (C. difficile 152; [7]): 0.06 µg/mL; MIC (C. difficile 181; [9]): 0.25 µg/mL; MIC (S. aureus^MR): 1 µg/mL; MIC (E. faecium^VRE; test strain 11, E. faecium^VRE (vancomycin resistant), read-out: MIC): 1 µg/mL; MIC (C. difficile 173; [10]): 0.06 µg/mL; MIC (C. difficile 9689; [11]): 0.5 µg/mL; MIC (C. difficile 159): 0.5 µg/mL; MIC (S. aureus^VR): 1 µg/mL; MIC (C. difficile 161; [13]): 0.5 µg/mL; MIC (E. faecium; [15]): 0.5 µg/mL; MIC (E. faecalis^VanA): 0.5 µg/mL; MIC (E. faecium^LinR): 0.5 µg/mL"
C/C=C1\NC(=O)[C@H]([C@@H](C)O)NC(=O)c2csc(n2)-c2ccc(-c3nc(-c4nc(C(=O)NC5(C(=O)NCCCN6CCN(C(C)C)CC6)CC5)cs4)cs3)nc2-c2csc(n2)[C@H]([C@@H](C)O)NC(=O)c2csc(n2)[C@H](C(C)C)NC(=O)c2csc1n2 [Compound 12],0.135,,,1,1,1,,1,1,0.5,MIC (C. difficile 174; [6]): 0.125 µg/mL; MIC (C. difficile 152; [7]): 1 µg/mL; MIC (C. difficile 181; [9]): 0.125 µg/mL; MIC (C. difficile 173; [10]): 1 µg/mL; MIC (C. difficile 9689; [11]): 0.5 µg/mL; MIC (C. difficile 161; [13]): 0.5 µg/mL; MIC (E. faecium; [15]): 1 µg/mL; MIC (E. faecalis^VanA): 1 µg/mL
C/C=C1\NC(=O)[C@H]([C@@H](C)O)NC(=O)c2csc(n2)-c2ccc(-c3nc(-c4nc(C(=O)NC5(C(=O)NN6CC(=O)N(CC(=O)OC)C6=O)CC5)cs4)cs3)nc2-c2csc(n2)[C@H]([C@@H](C)O)NC(=O)c2csc(n2)[C@H](C(C)C)NC(=O)c2csc1n2 [Compound 26],,,,,,,0.5,,,,MIC (C. difficile 174; 174): 0.5 µg/mL; MIC (C. difficile 152; 152): 0.5 µg/mL; MIC (S. epidermis^MR): 1 µg/mL; MIC (C. difficile 181; 181): 1 µg/mL; MIC (C. difficile 173; 173): 0.5 µg/mL; MIC (C. difficile 9689; 9689): 1 µg/mL; MIC (E. faecalis): 1 µg/mL; MIC (M. intracelluare): 0.043 µg/mL; MIC (C. difficile 161; 161): 0.5 µg/mL; MIC (S. aureus^MS [1]): 1 µg/mL; MIC (M. abscessus): 0.726 µg/mL
C/C=C1\NC(=O)[C@H]([C@@H](C)O)NC(=O)c2csc(n2)-c2ccc(-c3nc(-c4nc(C(=O)NC5(C(=O)NCCN6CCN(C[C@@H](O)CO)CC6)CC5)cs4)cs3)nc2-c2csc(n2)[C@H]([C@@H](C)O)NC(=O)c2csc(n2)[C@H](C(C)C)NC(=O)c2csc1n2 [Compound 28],0.13,0.115,0.49,,,0.25,,0.5,0.5,,
C/C=C1\NC(=O)[C@H]([C@@H](C)O)NC(=O)c2csc(n2)-c2ccc(-c3nc(-c4nc(C(=O)NC5(C(=O)NCCN6CCN(S(C)(=O)=O)CC6)CC5)cs4)cs3)nc2-c2csc(n2)[C@H]([C@@H](C)O)NC(=O)c2csc(n2)[C@H](C(C)C)NC(=O)c2csc1n2 [Compound 29],0.161,0.13,0.43,0.5,1,0.25,,0.25,0.25,0.5,
C/C=C1\NC(=O)[C@H]([C@@H](C)O)NC(=O)c2csc(n2)-c2ccc(-c3nc(-c4nc(C(=O)NC5(C(=O)NCCN6CCN(S(N)(=O)=O)CC6)CC5)cs4)cs3)nc2-c2csc(n2)[C@H]([C@@H](C)O)NC(=O)c2csc(n2)[C@H](C(C)C)NC(=O)c2csc1n2 [Compound 30],0.089,0.024,0.559,1,1,0.5,,1,0.5,0.25,
C/C=C1\NC(=O)[C@H]([C@@H](C)O)NC(=O)c2csc(n2)-c2ccc(-c3nc(-c4nc(C(=O)NC5(C(=O)NCCN6CCN(CCO)CC6)CC5)cs4)cs3)nc2-c2csc(n2)[C@H]([C@@H](C)O)NC(=O)c2csc(n2)[C@H](C(C)C)NC(=O)c2csc1n2 [Compound 32],0.153,0.116,0.153,,,0.5,,0.5,,,
C/C=C1\NC(=O)[C@H]([C@@H](C)O)NC(=O)c2csc(n2)-c2ccc(-c3nc(-c4nc(C(=O)NC5(C(=O)NCCCN6C(=O)NC(C)C6=O)CC5)cs4)cs3)nc2-c2csc(n2)[C@H]([C@@H](C)O)NC(=O)c2csc(n2)[C@H](C(C)C)NC(=O)c2csc1n2 (stereo partly shown) [Compound 37],,,,,,,0.25,,,,MIC (S. epidermis^MR): 0.25 µg/mL; MIC (E. faecium^VRE; VRE): 1 µg/mL; MIC (M. avium): 0.082 µg/mL; MIC (E. faecalis): 0.5 µg/mL; MIC (S. aureus^MS [1]): 0.25 µg/mL; MIC (E. faecium): 0.5 µg/mL; MIC (S. aureus^MS [2]): 0.25 µg/mL; MIC (E. faecalis^LinR): 1 µg/mL
